In brackets after ≈: the same amount, converted by molar mass.
Legend:
Assay type in all cases: functional
[1] = tested on: Mycobacterium tuberculosis; assay: Antimycobacterial activity against Mycobacterium tuberculosis H37Rv assessed as growth inhibition measured within 10 days by BACTEC MGIT method; conditions: 240 h
Candida albicans [2] = assay: Antifungal activity against Candida albicans MTCC 183 assessed as growth inhibition after 48 hr by agar streak dilution method; conditions: MTCC 183, 48 h
Shigella flexneri [3] = assay: Antibacterial activity against Shigella flexneri MTCC 1457 assessed as growth inhibition at 3.12 to 50 ug/mL after 24 hr by agar disk diffusion method
Aspergillus niger [4] = assay: Antifungal activity against Aspergillus niger MTCC 282 assessed as growth inhibition at 3.12 to 50 ug/mL after 24 hr by agar disk diffusion method
Aspergillus fumigatus [5] = assay: Antifungal activity against Aspergillus fumigatus MTCC 343 assessed as growth inhibition at 3.12 to 50 ug/mL after 24 hr by agar disk diffusion method
Aspergillus niger [6] = assay: Antifungal activity against Aspergillus niger MTCC 282 assessed as growth inhibition after 48 hr by agar streak dilution method; conditions: MTCC 282, 48 h
Candida albicans [7] = assay: Antifungal activity against Candida albicans MTCC 183 assessed as growth inhibition at 3.12 to 50 ug/mL after 24 hr by agar disk diffusion method
Escherichia coli [8] = assay: Antibacterial activity against Escherichia coli MTCC 739 assessed as growth inhibition at 3.12 to 50 ug/mL after 24 hr by agar disk diffusion method
Bacillus cereus [9] = assay: Antibacterial activity against Bacillus cereus MTCC 430 assessed as growth inhibition at 3.12 to 50 ug/mL after 24 hr by agar disk diffusion method
Shigella flexneri [10] = assay: Antibacterial activity against Shigella flexneri MTCC 1457 assessed as growth inhibition after 24 hr by agar streak dilution method; conditions: MTCC 1457, 24 h
Klebsiella pneumoniae [11] = assay: Antibacterial activity against Klebsiella pneumoniae MTCC 109 assessed as growth inhibition after 24 hr by agar streak dilution method; conditions: MTCC 109, 24 h
Salmonella typhi [12] = assay: Antibacterial activity against Salmonella enterica subsp. enterica serovar Typhi MTCC 733 assessed as growth inhibition after 24 hr by agar streak dilution method; conditions: MTCC 733, 24 h
Proteus vulgaris [13] = assay: Antibacterial activity against Proteus vulgaris MTCC 1771 assessed as growth inhibition at 3.12 to 50 ug/mL after 24 hr by agar disk diffusion method
Aspergillus fumigatus [14] = assay: Antifungal activity against Aspergillus fumigatus MTCC 343 assessed as growth inhibition after 48 hr by agar streak dilution method; conditions: MTCC 343, 48 h
Aspergillus clavatus [15] = assay: Antifungal activity against Aspergillus clavatus MTCC 1323 assessed as growth inhibition after 48 hr by agar streak dilution method; conditions: MTCC 1323, 48 h
Proteus vulgaris [16] = assay: Antibacterial activity against Proteus vulgaris MTCC 1771 assessed as growth inhibition after 24 hr by agar streak dilution method; conditions: MTCC 1771, 24 h
Aspergillus clavatus [17] = assay: Antifungal activity against Aspergillus clavatus MTCC 1323 assessed as growth inhibition at 3.12 to 50 ug/mL after 24 hr by agar disk diffusion method
Escherichia coli [18] = assay: Antibacterial activity against Escherichia coli MTCC 739 assessed as growth inhibition after 24 hr by agar streak dilution method; conditions: MTCC 739, 24 h
Klebsiella pneumoniae [19] = assay: Antibacterial activity against Klebsiella pneumoniae MTCC 109 assessed as growth inhibition at 3.12 to 50 ug/mL after 24 hr by agar disk diffusion method
Staphylococcus aureus [20] = assay: Antibacterial activity against Staphylococcus aureus MTCC 96 assessed as growth inhibition at 3.12 to 50 ug/mL after 24 hr by agar disk diffusion method
Salmonella typhi [21] = assay: Antibacterial activity against Salmonella enterica subsp. enterica serovar Typhi MTCC 733 assessed as growth inhibition at 3.12 to 50 ug/mL after 24 hr by agar disk diffusion method
Bacillus cereus [22] = assay: Antibacterial activity against Bacillus cereus MTCC 430 assessed as growth inhibition after 24 hr by agar streak dilution method; conditions: MTCC 430, 24 h
Pseudomonas aeruginosa [23] = assay: Antibacterial activity against Pseudomonas aeruginosa MTCC 741 assessed as growth inhibition at 3.12 to 50 ug/mL after 24 hr by agar disk diffusion method
[24] = tested on: Mycobacterium tuberculosis; assay: Antimycobacterial activity against Mycobacterium tuberculosis H37Rv assessed as growth inhibition after 12 to 28 days by Lowenstein and Jensen agar dilution method
Pseudomonas aeruginosa [25] = assay: Antibacterial activity against Pseudomonas aeruginosa MTCC 741 assessed as growth inhibition after 24 hr by agar streak dilution method; conditions: MTCC 741, 24 h
[26] = tested on: Mycobacterium tuberculosis; assay: Antimycobacterial activity against Mycobacterium tuberculosis H37Rv assessed as growth inhibition at MIC after 12 to 28 days by Lowenstein and Jensen agar dilution method
Staphylococcus aureus [27] = assay: Antibacterial activity against Staphylococcus aureus MTCC 96 assessed as growth inhibition after 24 hr by agar streak dilution method; conditions: MTCC 96, 24 h

SMILES	MIC [1] [µg/mL]	MIC (Candida albicans [2]) [µg/mL]	inhibition zone (IZ) (Shigella flexneri [3]) [mm]	inhibition zone (IZ) (Aspergillus niger [4]) [mm]	inhibition zone (IZ) (Aspergillus fumigatus [5]) [mm]	MIC (Aspergillus niger [6]) [µg/mL]	inhibition zone (IZ) (Candida albicans [7]) [mm]	inhibition zone (IZ) (Escherichia coli [8]) [mm]	inhibition zone (IZ) (Bacillus cereus [9]) [mm]	MIC (Shigella flexneri [10]) [µg/mL]	MIC (Klebsiella pneumoniae [11]) [µg/mL]	MIC (Salmonella typhi [12]) [µg/mL]	inhibition zone (IZ) (Proteus vulgaris [13]) [mm]	MIC (Aspergillus fumigatus [14]) [µg/mL]	MIC (Aspergillus clavatus [15]) [µg/mL]	MIC (Proteus vulgaris [16]) [µg/mL]	inhibition zone (IZ) (Aspergillus clavatus [17]) [mm]	MIC (Escherichia coli [18]) [µg/mL]	inhibition zone (IZ) (Klebsiella pneumoniae [19]) [mm]	inhibition zone (IZ) (Staphylococcus aureus [20]) [mm]	further results
CC1CC(C)CN(c2nc(-c3ccc(NCC(=O)Nc4nc5ccc(Cl)cc5s4)cc3)nc(N3CC(C)CC(C)C3)n2)C1 (stereo not given)	> 6.25	50 (≈ 80.7 µM)	26	17	<10	50 (≈ 80.7 µM)	12	21	27	6.25 (≈ 10.1 µM)	50 (≈ 80.7 µM)	25 (≈ 40.4 µM)	20	> 50	> 50	50 (≈ 80.7 µM)	<10	25 (≈ 40.4 µM)	23	22	inhibition zone (IZ) (Salmonella typhi [21]): 22 mm; MIC (Bacillus cereus [22]): 6.25 µg/mL (≈ 10.1 µM); inhibition zone (IZ) (Pseudomonas aeruginosa [23]): 26 mm; MIC [24]: 62.5 µg/mL (≈ 101 µM); MIC (Pseudomonas aeruginosa [25]): 25 µg/mL (≈ 40.4 µM); growth inhibition (GI) [26]: 97%; MIC (Staphylococcus aureus [27]): 6.25 µg/mL (≈ 10.1 µM)
Cc1ccc(NC(=O)CNc2ccc(-c3nc(N4CC(C)CC(C)C4)nc(N4CC(C)CC(C)C4)n3)cc2)cc1 (stereo not given)	> 6.25	50 (≈ 92.3 µM)	11	<10	<10	50 (≈ 92.3 µM)	11	13	14	50 (≈ 92.3 µM)	50 (≈ 92.3 µM)	50 (≈ 92.3 µM)	16	> 50	> 50	50 (≈ 92.3 µM)	<10	50 (≈ 92.3 µM)	<10	<10	inhibition zone (IZ) (Salmonella typhi [21]): 18 mm; MIC (Bacillus cereus [22]): 50 µg/mL (≈ 92.3 µM); inhibition zone (IZ) (Pseudomonas aeruginosa [23]): 17 mm; MIC [24]: 250 µg/mL (≈ 461 µM); MIC (Pseudomonas aeruginosa [25]): 50 µg/mL (≈ 92.3 µM); growth inhibition (GI) [26]: 95%; MIC (Staphylococcus aureus [27]): 50 µg/mL (≈ 92.3 µM)
CCOc1ccc(NC(=O)CNc2ccc(-c3nc(N4CC(C)CC(C)C4)nc(N4CC(C)CC(C)C4)n3)cc2)cc1 (stereo not given)	> 6.25	25 (≈ 43.7 µM)	22	19	<10	25 (≈ 43.7 µM)	24	24	20	25 (≈ 43.7 µM)	50 (≈ 87.4 µM)	25 (≈ 43.7 µM)	25	> 50	50 (≈ 87.4 µM)	12.5 (≈ 21.9 µM)	14	12.5 (≈ 21.9 µM)	<10	19	inhibition zone (IZ) (Salmonella typhi [21]): 21 mm; MIC (Bacillus cereus [22]): 50 µg/mL (≈ 87.4 µM); inhibition zone (IZ) (Pseudomonas aeruginosa [23]): 16 mm; MIC [24]: 25 µg/mL (≈ 43.7 µM); MIC (Pseudomonas aeruginosa [25]): 50 µg/mL (≈ 87.4 µM); growth inhibition (GI) [26]: 98%; MIC (Staphylococcus aureus [27]): 25 µg/mL (≈ 43.7 µM)
CC1CC(C)CN(c2nc(-c3ccc(NCC(=O)Nc4nc5ccc(C#N)cc5s4)cc3)nc(N3CC(C)CC(C)C3)n2)C1 (stereo not given)	> 6.25	> 50	22	19	22	25 (≈ 41 µM)	<10	25	22	50 (≈ 82 µM)	25 (≈ 41 µM)	50 (≈ 82 µM)	22	50 (≈ 82 µM)	50 (≈ 82 µM)	25 (≈ 41 µM)	16	6.25 (≈ 10.2 µM)	27	24	inhibition zone (IZ) (Salmonella typhi [21]): 18 mm; MIC (Bacillus cereus [22]): 50 µg/mL (≈ 82 µM); inhibition zone (IZ) (Pseudomonas aeruginosa [23]): 18 mm; MIC [24]: 100 µg/mL (≈ 164 µM); MIC (Pseudomonas aeruginosa [25]): 50 µg/mL (≈ 82 µM); growth inhibition (GI) [26]: 95%; MIC (Staphylococcus aureus [27]): 6.25 µg/mL (≈ 10.2 µM)
CC(=O)Nc1ccc(NC(=O)CNc2ccc(-c3nc(N4CC(C)CC(C)C4)nc(N4CC(C)CC(C)C4)n3)cc2)cc1 (stereo not given)	> 6.25	50 (≈ 85.5 µM)	16	22	12	12.5 (≈ 21.4 µM)	17	20	12	50 (≈ 85.5 µM)	50 (≈ 85.5 µM)	50 (≈ 85.5 µM)	27	50 (≈ 85.5 µM)	50 (≈ 85.5 µM)	6.25 (≈ 10.7 µM)	19	50 (≈ 85.5 µM)	<10	<10	inhibition zone (IZ) (Salmonella typhi [21]): <10 mm; MIC (Bacillus cereus [22]): 50 µg/mL (≈ 85.5 µM); inhibition zone (IZ) (Pseudomonas aeruginosa [23]): 19 mm; MIC [24]: 62.5 µg/mL (≈ 107 µM); MIC (Pseudomonas aeruginosa [25]): 50 µg/mL (≈ 85.5 µM); growth inhibition (GI) [26]: 95%; MIC (Staphylococcus aureus [27]): 50 µg/mL (≈ 85.5 µM)

Reference: ChEMBL document CHEMBL3046161, “Synthesis of potential antitubercular and antimicrobial s-triazine-based scaffolds via Suzuki cross-coupling reaction” (2013)
